Assay [1] has as its system Plasmodium falciparum 3D7 strain. Nature of the assay: In vitro susceptibility assay of P. falciparum, SYBR Green I. The conditions noted are these: for IC50: Plasmodium falciparum; for antimalarial activity (in words): P. falciparum 3D7. Format: cell-based. On the procedure: The principle of the in vitro susceptibility test to malaria is to assess the degree of development of parasites P. falciparum in the presence of different concentrations of the compounds.
In the present disclosure, the antimalarial activity was also evaluated. Each compound was lyophilized and solubilized in DMSO (Sigma-Aldrich) to obtain a final concentration of 5 mM. Some intermediate dilutions were made to achieve the final concentration of 10 μM in the first well of the plate.
In an embodiment, the culture of P. falciparum was carried out as follows. […] Parasites were cultivated at 5% hematocrit, 37° C. and atmosphere with 5% of CO2, human serum was replaced with 0.5% AlbuMAXII (Invitrogen™) in the culture medium. Synchronized cultures were obtained by treatments with a 5% (m/v) solution of D-sorbitol (Sigma-Aldrich).
In the present disclosure, the in vitro susceptibility assay of P. falciparum using SYBR Green I was carried out as follows. […] Briefly, early ring stage parasites (>80% of rings, 3% haematocrit and 1% parasitaemia) were tested in duplicate in a 96-well plate and incubated with the compounds for 48 h (37° C., 5% CO2), parasite growth was assessed with SYBR Green I (Thermo Fisher Scientific). Each compound was tested in concentrations ranging from 10 to 0.001 μM. Fluorescence intensity was measured with a microplate reader with excitation and emission wavelengths of 485 and 535 nm, respectively, and analysed by nonlinear regression using GraphPad Prism 5 demo version to determine

Another assay has as its system S. aureus 40/61/24. The assay is described as follows: MIC/MBC broth dilution (CLSI), sensitive clinical isolate. In kind it is cell-based. Particulars: Staphylococcus aureus. An excerpt:
(§1) In the present disclosure, two Gram-positive—Staphylococcus aureus ATCC 29213 and Enterococcus faecalis ATCC […] and two Gram-negative—Escherichia coli ATCC 25922 and Pseudomonas aeruginosa ATCC 27853—reference bacterial strains were used. When it was possible to determine a minimal inhibitory concentration (MIC) value for these strains, clinically relevant strains were also used. These included methicillin-resistant S. uareus (MRSA) 66/1, isolated from public buses, as well as a isolate sensitive to the most commonly used antibiotic families (S. aureus 40/61/24) and two vancomycin-resistant Enterococcus (VRE) strains isolated from river water, E. faecalis B3/101 and E. faecalis A5/102, which is sensitive to ampicillin. Frozen stocks of all strains were grown on Mueller-Hinton agar (MH-BioKar Diagnostics, Allone, France) at 37° C. for 24 h. All bacterial strains were sub-cultured on MH agar and incubated overnight at 37° C. before each assay, in order to obtain fresh cultures.
(§2) An initial screening of the antibacterial activity of the compounds was performed by the Kirby-Bauer disk diffusion method, as recommended by the Clinical and Laboratory Standards institute (CLSI). Briefly, sterile 6 mm blank paper disks (Oxoid, Basingstoke, England) impregnated with 15 μg of each compound were placed on inoculated MH agar plates. A blank disk with DMSO was used as a negative control. MH inoculated plates were incubated for 18-20 hours at 37° C. At the end of the incubation, the inhibition halos where measured. The minimal inhibitory concentration (MIC) was used to determine the antibacterial activity of each compound, in accordance with the recommendations of the CLSI. Two-fold serial dilutions of the compounds were prepared in Mueller-Hinton Broth 2 (MHB2-Sigma-Aldrich, St. Louis, Mo., USA) within the concentration range of 0.062-64 μg/mL. Cefotaxime (CTX) ranging between 0.031-16 μg/mL was used as a control. Sterility and growth controls were included in each assay. Purity check and colony counts of the inoculum suspensions were also performed in order to ensure that the final inoculum density closely approximates the intended number ([…]). The MIC was determined as the lowest concentration at which no visible growth was observed. The minimal bactericidal concentration (MBC) was assessed by spreading 10 μL of culture collected from wells showing no visible growth on MH agar plates. The MBC was determined as the lowest concentration at which no colonies grew after 16-18 hours incubation at 37° C. These assays were performed in duplicate.

Another assay concerns E. faecalis ATCC 29212. Nature of the assay: MIC/MBC broth dilution (CLSI), E. faecalis reference strain. Format: cell-based, Enterococcus faecalis.
Description: as §1, §2

Another assay deals with E. faecalis B3/101 (VRE). Nature of the assay: MIC/MBC broth dilution (CLSI), VRE. In kind it is cell-based. Particulars: Enterococcus faecalis.
Description: as §1, §2

In the next assay the test system is E. faecalis A5/102 (VRE). Nature of the assay: MIC/MBC broth dilution (CLSI), VRE sensitive to ampicillin. In kind it is cell-based. Particulars: Enterococcus faecalis.
Description: as §1, §2

In the next assay the test system is S. aureus 66/1 (MRSA). The assay is described as follows: MIC/MBC broth dilution (CLSI), MRSA. Particulars: Staphylococcus aureus. In kind it is cell-based.
Description: as §1, §2

In assay [2] the test system is Staphylococcus aureus ATCC 29213. Nature of the assay: MIC/MBC broth dilution (CLSI), S. aureus reference strain. Format: cell-based. The conditions noted are these: S. aureus ATCC 29213; for MBC / MIC: Staphylococcus aureus, ATCC29213; for MIC: read-out: MIC.
Description: as §1, §2

[3] abbreviates: P. falciparum (3D7), 48 h, read-out: IC50.
Where [4] appears, read: Enterococcus faecalis, ATCC29212.
Where [5] appears, read: S. aureus 40/61/24, read-out: MIC.
Setting [6] is: Enterococcus faecalis, ATCC29212, read-out: MIC.

Molecules are shown by their SMILES. Converted amounts (≈) assume the structure as drawn. Where two headings read alike, the source gives them in different places. Where only a bound is given, the exact number is not on record here.

In turn, `CCN(CC)CCCC(C)Nc1ccnc2cc(Cl)ccc12` (centres unmarked) [CQ (6), chloroquine, reference compound] displayed an IC50 in assay [1] (3D7) of 15.08 ± 0.08 nM.
On to `CC(C)[C@@H]1NC(=O)[C@H](Cc2c[nH]c3ccccc23)n2c1nc1ccccc1c2=O` [Compound 10], for which the “antimalarial activity (in words)” value in assay [1] is “inactive”.
With `CC(C)[C@H]1NC(=O)[C@@H](Cc2c[nH]c3ccccc23)n2c1nc1ccccc1c2=O` [Compound 13], the “antimalarial activity (in words)” value in assay [1] is recorded as “decreased activity”. For the same compound, the IC50 in assay [1] (setting [3]) was determined as 150 ± 50 nM.
`CC(C)C[C@@H]1NC(=O)[C@H](Cc2c[nH]c3ccccc23)n2c1nc1ccccc1c2=O` [Compound 14]: the “antimalarial activity (in words)” value in assay [1] is “inactive”.
Take `CC(C)C[C@H]1NC(=O)[C@H](Cc2c[nH]c3ccccc23)n2c1nc1ccccc1c2=O` [Compound 15]: the IC50 in assay [1] (setting [3]) was found to be 2000 ± 320 nM.
On to `CC(C)C[C@H]1NC(=O)[C@@H](Cc2c[nH]c3ccccc23)n2c1nc1ccccc1c2=O` [Compound 17], for which, in assay [1], the “antimalarial activity (in words)” value is given as “decreased activity”. In addition, the IC50 in assay [1] (setting [3]) is 470 ± 220 nM.
Consider `O=C1N[C@H](Cc2ccc(O)cc2)c2nc3ccccc3c(=O)n2[C@H]1Cc1c[nH]c2ccccc12` [Compound 25], for which, in assay [1] (setting [3]), the IC50 was determined as 4180 ± 30 nM.
The same measure, in the same setting: the result for `C[C@H]1NC(=O)[C@@H](Cc2c[nH]c3ccccc23)n2c1nc1ccccc1c2=O` [Compound 26] reads 3680 ± 620 nM.
In the case of `CC(C)[C@@H]1NC(=O)[C@@H](Cc2c[nH]c3ccccc23)n2c1nc1ccc(Cl)cc1c2=O` [Compound 27, (1S, 4R)-4-((1H-indol-3-yl)methyl)-8-chloro-1-isopropyl-1,2-dihydro-6H-pyrazino[2,1-b]quinazoline-3,6(4H)-dione], the MIC is 64 µg/mL (≈ 152 µM) with S. aureus 40/61/24 (40/61/24); 64 µg/mL (≈ 152 µM) against E. faecalis ATCC 29212; 32 µg/mL (≈ 76 µM) with E. faecalis ATCC 29212 (setting [4]); over 64 µg/mL with E. faecalis B3/101 (VRE); 64 µg/mL (≈ 152 µM) against E. faecalis A5/102 (VRE); over 64 µg/mL against S. aureus 66/1 (MRSA). The MIC in assay [2] is 32 µg/mL (≈ 76 µM). The MBC (in the assay with S. aureus 40/61/24 (S. aureus 40/61/24); against E. faecalis ATCC 29212 (setting [4]); with E. faecalis B3/101 (VRE); in the assay on E. faecalis A5/102 (VRE); against S. aureus 66/1 (MRSA); in assay [2]) was over 64 µg/mL throughout. Moreover, the “antibacterial (inhibitory) effect (in words)” value (in the assay with E. faecalis ATCC 29212; in assay [2]) was “inhibitory effect” throughout.
For `CC(C)[C@@H]1NC(=O)[C@@H](Cc2c[nH]c3ccccc23)n2c1nc1c(Cl)cc(Cl)cc1c2=O` [Compound 30, (1S, 4R)-4-((1H -indol-3-yl)methyl)-8,10-dichloro-1-isopropyl-1,2-dihydro-6H-pyrazino[2,1-b]quinazoline-3,6(4H)-dione], the MBC (in the assay on S. aureus 40/61/24 (S. aureus 40/61/24); against E. faecalis ATCC 29212 (setting [4]); against S. aureus 66/1 (MRSA); in assay [2]) was over 64 µg/mL in each case. Further, the MIC was over 64 µg/mL in the assay on S. aureus 40/61/24 (setting [5]), over 64 µg/mL in the assay on E. faecalis ATCC 29212 (setting [6]), over 64 µg/mL with S. aureus 66/1 (MRSA) and 16 µg/mL (≈ 35.1 µM) in assay [2]. In addition, in assay [2], the “antibacterial (inhibitory) effect (in words)” value is recorded as “inhibitory effect”.
On to `CCC(C)[C@@H]1NC(=O)[C@@H](Cc2c[nH]c3ccccc23)n2c1nc1c(Cl)cc(Cl)cc1c2=O` (stereo partly drawn) [Compound 32, (1S, 4R)-4((1H-indol-3-yl)methyl)-1-((S)-sec-butyl) 8,10-dichloro-1,2-dihydro-6H-pyrazinoi[2,1-b]quinazoline-3,6(4H)-dione], for which the MIC was 8 µg/mL (≈ 17 µM) in the assay with S. aureus 40/61/24 (40/61/24), over 64 µg/mL in the assay with E. faecalis ATCC 29212 (setting [6]), 8 µg/mL (≈ 17 µM) with S. aureus 66/1 (MRSA) and 4 µg/mL (≈ 8.52 µM) in assay [2]. For the same compound, the minimal bactericidal concentration (MBC) (against S. aureus 40/61/24 (S. aureus 40/61/24); in the assay on E. faecalis ATCC 29212 (setting [4]); against S. aureus 66/1 (MRSA); in assay [2]) was over 64 µg/mL in each case. In addition, 1510 ± 530 nM corresponded to half-maximal inhibition in assay [1] (3D7, 48 h) (IC50). Also, the “antibacterial (inhibitory) effect (in words)” value in assay [2] was “inhibitory effect”.
For `CC(C)C[C@@H]1NC(=O)[C@@H](Cc2c[nH]c3ccccc23)n2c1nc1ccc(I)cc1c2=O` [Compound 35, (1S,4R)-4-((1H-indol-3-yl)methyl)-8-iodo-1-isobutyl-1,2-dihydro-6H-pyrazino[2,1-b]quinazoline-3,6(4H)-dione], the MBC (against S. aureus 40/61/24 (S. aureus 40/61/24); with E. faecalis ATCC 29212 (setting [4]); against S. aureus 66/1 (MRSA); in assay [2]) was over 64 µg/mL each time. The minimal inhibitory concentration (MIC) in the assay with S. aureus 40/61/24 (setting [5]) was 64 µg/mL (≈ 122 µM); in the assay on E. faecalis ATCC 29212 (setting [6]) it was over 64 µg/mL; with S. aureus 66/1 (MRSA), over 64 µg/mL; in assay [2], 16 µg/mL (≈ 30.4 µM). Besides, the “antibacterial (inhibitory) effect (in words)” value in assay [2] was “inhibitory effect”.
Consider `CC(C)C[C@@H]1NC(=O)[C@@H](Cc2c[nH]c3ccccc23)n2c1nc1ccc(Br)cc1c2=O` [Compound 36, (1s,4R)-4-((1H-indol-3-yl)methyl)-8-bromo-1-isobutyl-1,2-dihydro-6H-pyrazino[2,1-b]quinazoline-3,6(4H)-dione], for which the MBC (against S. aureus 40/61/24 (S. aureus 40/61/24); in the assay with E. faecalis ATCC 29212 (setting [4]); against S. aureus 66/1 (MRSA); in assay [2]) was over 64 µg/mL in each case. For the same compound, the MIC was over 64 µg/mL with S. aureus 40/61/24 (setting [5]), over 64 µg/mL in the assay on E. faecalis ATCC 29212 (setting [6]), over 64 µg/mL against S. aureus 66/1 (MRSA) and 16 µg/mL (≈ 33.4 µM) in assay [2]. Further, in assay [2], the “antibacterial (inhibitory) effect (in words)” value is listed as “inhibitory effect”.
In assay [1] (3D7, 48 h), `O=C1N[C@@H](Cc2ccc(OCc3ccccc3)cc2)c2nc3c(Cl)cc(Cl)cc3c(=O)n2[C@@H]1Cc1c[nH]c2ccccc12` [Compound 38] gave an IC50 of 4000 ± 20 nM.
With `CC(C)C[C@@H]1NC(=O)[C@@H](Cc2c[nH]c3ccccc23)n2c1nc1ccc(O)cc1c2=O` [Compound 39], in assay [1] (setting [3]), the IC50 amounted to 730 ± 70 nM.
In the case of `CC(C)C[C@@H]1NC(=O)[C@@H](Cc2c[nH]c3ccccc23)n2c1nc1cnccc1c2=O` [Compound 42, (1S,4R)-4-((1H-indol-3-yl)methyl)-1-isobutyl-1,2-dihydro-6H-pyrazino[1,2-α]pyrido[3,4-d]pyrimidine-3,6(4H)-dione], in assay [1] (setting [3]), the IC50 is 4000 ± 20 nM.
Same read-out and setting: the result for `CC(C)C[C@@H]1NC(=O)[C@@H](Cc2c[nH]c3ccccc23)n2c1nc1ncccc1c2=O` [Compound 43] reads 3760 nM.
With `CC(C)C[C@@H]1NC(=O)[C@@H](Cc2cc3ccccc3[nH]2)n2c1nc1cc(-c3nnnn3C)ccc1c2=O` [Compound 44, (1S,4R)-4-((1H-indol-2-yl)methyl)-1-isobutyl-9-(1-methyl-1H-tetrazol-5-yl)-1,2-dihydro-6H-pyrazino [2,1-b]quinazoline-3,6(4H)-dione], in assay [1], the “antimalarial activity (in words)” value is given as “weak activity”. Moreover, the IC50 in assay [1] (setting [3]) is 1020 ± 270 nM.
